According to publication PMC10480042 (ACS applied materials & interfaces, 2023):
No end group written: not given here.

Legend:
Aβ42 [1] = target: T1, Aβ42 (Homo sapiens, UniProt P05067); experiment: CD spectroscopy; assay type: biochemical; details: co-incubation with Spike1058, dose-dependent, 48 h, 37 °C
Aβ42 [2] = target: T1, Aβ42; experiment: SEC-HPLC-UV of Aβ42 and Spike1058 co-aggregation; assay type: biochemical; details: molar ratio 1:2, 4 h, 37 °C, UV 220 nm, PBS pH 5.6
Aβ42 [3] = target: T1, Aβ42; experiment: biochemical; assay type: binding
zebrafish embryos [4] = details: in vivo
zebrafish embryos [5] = details: in vivo; remark: listed apart in the source
Aβ42 [6] = target: T1, Aβ42; assay type: biochemical

T1 sequence (P05067 672-713): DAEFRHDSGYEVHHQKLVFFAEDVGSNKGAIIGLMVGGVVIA

## HGVVFLHVTYV [Spike1058]
Aβ42 [1]
  increase of β-sheet content of Aβ by co-incubation (CD): 16-35%
Aβ42 [2]
  decrease of amount of Spike1058 in mixed Aβ-Spike1058 sample: 39.54%
Aβ42 [3]
  Kd: 82.6 nM
SH-SY5Y cells
  cell mortality: elevated in a dose-dependent manner
  cell mortality vs Aβ control: less deleterious than Aβ control
  number of viable SH-SY5Y cells at increasing Spike:Aβ molar ratios: gradual decline in number
SH-SY5Y cells; 25 µM
  impact on cell viability, less than Aβ control: 11%
SH-SY5Y cells; 24 h
  viable SH-SY5Y cells compared with Aβ control group: 22%
Zebrafish embryos [4]
  generation of biotic ROS, surpassing levels with Aβ or Spike1058 alone: significant increase
Zebrafish embryos [5]
  hatching interference and mortality compared to control group: pronounced hatching interference and mortality
  hatching rate in comparison to Aβ or Spike1058 alone: significantly decreased
  influence on hatching and mortality rate relative to Aβ: more substantial influence than Aβ
  survival rate in comparison to Aβ or Spike1058 alone: significantly decreased
Aβ42 [6]
  increase of Aβ's β-sheet content by co-incubation: 7-33%
